Laboratory results from publication PMC6792352, “Limited Chemical Structural Diversity Found to Modulate Thyroid Hormone Receptor in the Tox21 Chemical Library” (Environmental Health Perspectives, 2019).
Structures can show the parent of a compound that is named as a salt.

experiment: in vitro; details: rat, gh3-tre-luc cells, AC50 (uM) modified / 1000

Structure (SMILES) | CC50 at 24 h
Cc1nc(C)c(Cl)c(O)c1Cl [Clopidol] | > 50 µM
Cc1cc(-c2ccc(/N=N/c3c(S(=O)(=O)O)cc4cc(S(=O)(=O)O)cc(N)c4c3O)c(C)c2)ccc1/N=N/c1c(S(=O)(=O)O)cc2cc(S(=O)(=O)O)cc(N)c2c1O [C.I. Direct Blue 14] | 22.8 µM
C=CC(C)(O)CCC=C(C)C (centres unmarked) [Linalool] | > 90 µM
OC(CCN1CCCC1)(c1ccccc1)C1CCCCC1 (centres unmarked) [Procyclidine hydrochloride] | 10.6 µM
CC=C(C)C(=O)OCCC(C)CCC=C(C)C (centres unmarked) [3,7-Dimethyloct-6-en-1-yl 2-methylbut-2-enoate] | > 90 µM
O=C1OC(O)C(C(Cl)Cl)=C1Cl (centres unmarked) [3-Chloro-4-(dichloromethyl)-5-hydroxy-2(5H)-furanone] | 35 µM
CC(C(O)c1ccccc1)N(C)CCOC(c1ccccc1)c1ccccc1 (centres unmarked) [Difeterol] | 15.1 µM
CN(C)CCCN(C)CCCN(C)C [2,6,10-Trimethyl-2,6,10-triazaundecane] | > 90 µM
CC(C)CCCCCCOC(=O)CCCCC(=O)OCCCCCCC(C)C [Hexanedioic acid, diisononyl ester] | > 90 µM
COCc1nnc(-c2ccc[n+]([O-])c2)n1-c1c(Cl)c(Cl)cc2[nH]c(=O)c(=O)[nH]c12 [UK-333747] | > 90 µM
O=C(Nc1cccc(C2=NCCN2)c1)Nc1cccc(C2=NCCN2)c1 [Imidocarb dipropionate] | > 50 µM
CCN[C@@H]1C[C@H](N)[C@@H](O[C@H]2OC(CN)=CC[C@H]2N)[C@H](O)[C@H]1O[C@H]1OC[C@](C)(O)[C@H](NC)[C@H]1O [Netilmicin sulfate] | > 50 µM
Clc1ccc(C(Cn2ccnc2)OCc2c(Cl)cccc2Cl)c(Cl)c1 (centres unmarked) [Isoconazole] | 13.8 µM
NS(=O)(=O)c1ccccc1Cl [2-Chlorobenzenesulfonamide] | > 90 µM
CC1(N)CCC(C(C)(C)N)CC1 (centres unmarked) [1,8-Diamino-p-menthane] | > 90 µM
CC12CCC(C1)C(C)(C)C2=O (stereo not drawn) [alpha-Fenchone] | > 50 µM
CC[N+](C)(C)Cc1ccccc1Br [Bretylium tosylate] | > 20 µM
Clc1cccc(Cl)c1 [1,3-Dichlorobenzene] | > 90 µM
CC(C)(Oc1ccc(C2CC2(Cl)Cl)cc1)C(=O)O (centres unmarked) [Ciprofibrate] | > 90 µM
CC(O)C1CCCCC1 (centres unmarked) [1-Cyclohexylethanol] | > 90 µM
NC(=O)[C@H]1O[C@@H](O)[C@H](O)[C@@H](O)[C@@H]1O [Glucuronamide] | > 50 µM
Cc1c(NC(=O)c2cccnc2)c(=O)n(-c2ccccc2)n1C [Nifenazone] | > 20 µM
C=C(C)[C@H]1CC=C(C)C(=O)C1 [d-Carvone] | > 90 µM
CC(C)[N+](C)(CCOC(=O)C1c2ccccc2Oc2ccccc21)C(C)C [Propantheline bromide] | > 90 µM
CCC(C)c1ccccc1O (centres unmarked) [2-(Butan-2-yl)phenol] | > 90 µM

Structure (SMILES) | CC50 at 24 h
Cc1ccc(S(=O)(=O)N=C=O)cc1 [p-Toluenesulphonyl isocyanate] | > 90 µM
O=C1CCC(c2ccc(-n3ccnc3)cc2)=NN1 [Imazodan] | > 50 µM
Oc1ccc([C@@H]2CNCc3c2ccc(O)c3O)cc1O [Zelandopam] | 39.3 µM
COc1cc(O)cc(O)c1 [Flamenol] | > 50 µM
Brc1ccc(Br)c(Br)c1 [1,2,4-Tribromobenzene] | > 90 µM
COc1c(C)c2c(c(O)c1C/C=C(\C)CCC(=O)OCCN1CCOCC1)C(=O)OC2 [Mycophenolate mofetil] | 1.07 µM
CC(=O)OCC(=O)[C@@]1(O)CC[C@H]2[C@@H]3CCC4=CC(=O)CC[C@]4(C)[C@H]3C(=O)C[C@@]21C [Cortisone acetate] | > 50 µM
Nc1nc2[nH]cc(CCc3ccc(C(=O)N[C@@H](CCC(=O)O)C(=O)O)cc3)c2c(=O)[nH]1 [Pemetrexed disodium] | > 50 µM
COc1ccc(S(=O)(=O)N2c3ccc(Cl)cc3[C@](O)(c3ccccc3Cl)[C@@H]2C(=O)N2CCC[C@H]2C(N)=O)cc1OC [Relcovaptan] | > 50 µM
O=C(O)CS [Thioglycolic acid] | > 90 µM
CCCC1O[C@@H]2C[C@H]3[C@@H]4CCC5=CC(=O)C=C[C@]5(C)[C@H]4[C@@H](O)C[C@]3(C)[C@]2(C(=O)CO)O1 (some centres unmarked) [Budesonide] | > 90 µM
C=CCOc1ccccc1OCC(O)CNC(C)C (centres unmarked) [Oxprenolol hydrochloride] | > 20 µM
Cc1c(O)cccc1O [2-Methyl-1,3-benzenediol] | > 90 µM
O=C(O)c1cccnc1 [Nicotinic acid] | > 50 µM
CC(N)CN (centres unmarked) [1,2-Diaminopropane] | > 100 µM
O=C(O)CCCc1ccccc1 [Sodium 4-phenylbutyrate] | > 50 µM
C=C(C)C(=O)OCCC[Si](OC)(OC)OC [3-(Trimethoxysilyl)propyl methacrylate] | > 90 µM
O=C1CC2CC1C1CCCC21 (centres unmarked) [Corodane] | > 90 µM
O=C(/C=C/c1ccccc1)OCCCc1ccccc1 [3-Phenylpropyl cinnamate] | > 90 µM
CN1C(CCl)Nc2cc(Cl)c(S(N)(=O)=O)cc2S1(=O)=O (centres unmarked) [Methyclothiazide] | > 50 µM
CC(=O)O[Si](C)(OC(C)=O)OC(C)=O [Methylsilanetriyl triacetate] | > 90 µM
CCc1cccc(C)c1N(C(=O)CCl)[C@@H](C)COC [S-Metolachlor] | > 90 µM
CS(=O)(=O)c1ccc(Cl)cc1 [4-Chlorophenyl methyl sulfone] | > 90 µM
O=C(O)CCCCCC(=O)O [Heptanedioic acid] | > 90 µM
COc1cccc(-c2ccc(/C=C\CN3CCCCCC3)cc2Cl)c1 [SR125047] | 17.7 µM

Structure (SMILES) | CC50 at 24 h
CCc1cc(S(=O)(=O)O)c2cc(C(C)C)cccc1-2 [Egualen sodium] | > 50 µM
Cc1[nH]c(=O)c(C#N)cc1-c1ccncc1 [Milrinone] | > 90 µM
CN1CCN(CCCN2c3ccccc3Sc3ccccc32)CC1 [Perazine] | 16.5 µM
O=C1CCC(=O)N1Cl [N-Chlorosuccinimide] | > 90 µM
C/C=C/C=O [Crotonaldehyde] | > 90 µM
Clc1cc(Cl)cc(Cl)c1 [1,3,5-Trichlorobenzene] | > 90 µM
CC(C)c1ccc(CO)cc1 [4-Isopropylbenzyl alcohol] | > 90 µM
Nc1nc(N)nc(NC2CC2)n1 [Cyromazine] | > 90 µM
CCC(C(N)=O)N1CCCC1=O (centres unmarked) [Etiracetam] | > 50 µM
NC(=O)Oc1ccc(Cc2ccccc2)cc1 [Diphenan] | > 50 µM
CCOC(=O)COC(=O)c1cc(Oc2ccc(C(F)(F)F)cc2Cl)ccc1[N+](=O)[O-] [Fluoroglycofen-ethyl] | > 90 µM
O=[N+]([O-])c1ccccc1Nc1ccccc1 [2-Nitrodiphenylamine] | > 90 µM
CN(C)c1cccc(O)c1 [3-Dimethylaminophenol] | > 90 µM
O=C1C(I)=CC(=C(c2cc(I)c(O)c(I)c2)c2ccccc2C(=O)O)C=C1I [Iodophthalein sodium] | 41.3 µM
CCC(COC(=O)c1cc(OC)c(OC)c(OC)c1)(c1ccccc1)N(C)C (centres unmarked) [Trimebutine maleate] | > 50 µM
CCCCCCCO [1-Heptanol] | > 90 µM
CO/N=C(\C(=O)N[C@@H]1C(=O)N2C(C(=O)O)=C(CSC(=O)c3ccco3)CS[C@H]12)c1csc(N)n1 [Ceftiofur] | > 50 µM
CCc1ccccc1O [2-Ethylphenol] | > 90 µM
O=c1cc[nH]c(=S)[nH]1 [Thiouracil] | > 90 µM
COCN(COC)c1nc(N(COC)COC)nc(N(COC)COC)n1 [Hexa(methoxymethyl)melamine] | > 90 µM
C/C=C(\C)C(=O)OCCc1ccccc1 [Phenethyl tiglate] | > 90 µM
[H]/N=C(\N/C(=N/[H])Nc1ccc(Cl)cc1)NC(C)C [Proguanil hydrochloride] | > 20 µM
O=C1O[C@H]([C@H](O)CO)C(O)=C1O [Isoascorbic acid] | > 90 µM

same assay, conditions: rat, gh3-tre-luc cells, AC50 (uM) modified / 1000, Tox21_110001=Tox21_110665; viability, 1 nM T3 present, 24 h

Structure (SMILES) | CC50 at 24 h
CCC1(c2cccc(O)c2)CCCCN(C)C1 (centres unmarked) [Meptazinol hydrochloride] | > 20 µM

same assay, conditions: rat, gh3-tre-luc cells, AC50 (uM) modified / 1000, Tox21_110001=Tox21_111120; viability, 1 nM T3 present, 24 h

Structure (SMILES) | CC50 at 24 h
ClC1=C(Cl)[C@]2(Cl)[C@@H]3[C@H]4C[C@H]([C@@H]5O[C@H]45)[C@@H]3[C@@]1(Cl)C2(Cl)Cl [Endrin] | 34.4 µM

same assay, conditions: rat, gh3-tre-luc cells, AC50 (uM) modified / 1000, Tox21_110001=Tox21_202449; viability, 1 nM T3 present, 24 h

Structure (SMILES) | CC50 at 24 h
Clc1nc(Cl)nc(Cl)n1 [2,4,6-Trichloro-s-triazine] | > 90 µM

same assay, conditions: rat, gh3-tre-luc cells, AC50 (uM) modified / 1000, Tox21_110001=Tox21_202719; viability, 1 nM T3 present, 24 h

Structure (SMILES) | CC50 at 24 h
CCCCCCBr [1-Bromohexane] | > 100 µM

same assay, conditions: rat, gh3-tre-luc cells, AC50 (uM) modified / 1000, Tox21_110001=Tox21_300396; viability, 1 nM T3 present, 24 h

Structure (SMILES) | CC50 at 24 h
O=S(=O)(O)C(F)(F)C(F)(F)C(F)(F)C(F)(F)C(F)(F)C(F)(F)F [Potassium perfluorohexanesulfonate] | > 90 µM

same assay, conditions: rat, gh3-tre-luc cells, AC50 (uM) modified / 1000, Tox21_110001=Tox21_300613; viability, 1 nM T3 present, 24 h

Structure (SMILES) | CC50 at 24 h
ClC1=C(Cl)[C@]2(Cl)[C@@H]3[C@H]4C[C@H]([C@@H]5O[C@H]45)[C@@H]3[C@@]1(Cl)C2(Cl)Cl [Endrin] | > 90 µM

same assay, conditions: rat, gh3-tre-luc cells, AC50 (uM) modified / 1000, Tox21_110001=Tox21_300778; viability, 1 nM T3 present, 24 h

Structure (SMILES) | CC50 at 24 h
CNC(=O)Oc1cccc(N=CN(C)C)c1 [Formetanate hydrochloride] | > 90 µM

same assay, conditions: rat, gh3-tre-luc cells, AC50 (uM) modified / 1000, Tox21_110001=Tox21_301075; viability, 1 nM T3 present, 24 h

Structure (SMILES) | CC50 at 24 h
N#CCNCC#N [Iminodiacetonitrile] | > 90 µM

same assay, conditions: rat, gh3-tre-luc cells, AC50 (uM) modified / 1000, Tox21_110001=Tox21_302242; viability, 1 nM T3 present, 24 h

Structure (SMILES) | CC50 at 24 h
CCCCCCCCP(=O)(O)O [Octylphosphonic acid] | > 90 µM

same assay, conditions: rat, gh3-tre-luc cells, AC50 (uM) modified / 1000, Tox21_110001=Tox21_302297; viability, 1 nM T3 present, 24 h

Structure (SMILES) | CC50 at 24 h
COc1ccccc1OC [1,2-Dimethoxybenzene] | > 90 µM
